Patent US11052142B2, “Modified endotoxic bacteria lipopolysaccharide (variants), combination of modified lipopolysaccharides (variants) and, containing same, a vaccine (variants) and a pharmaceutical composition (variants)” (priority 2013, dated 2021)
Read-outs that look alike come from different tables or passages of the source.

Assays:
[1] = test system: TNF-α; assay: In vivo production of TNF-α in blood serum after i.v. administration to mice (data from patent RU 2154068)
Text: In this case the vertical axis represents the values for TNF-α concentrations (pg/mL) and the values for IL-6 concentrations (ng/mL). The horizontal axis represents (A and B) the values for injection dose of preparation OM174 (mg/kg) to mice. The vertical axis (C) represents the value for injection dose of LPS ([…]; positive control) and saline solution (0.85% NaCl solution; negative control) to mice.
The solid lines represent the lines of extrapolation for the values of doses for OM174: 0.20; 2.00; 2.01; 3.40 and 28.10 (A and B) and the values of doses for Westphal LPS E coli O:111B4: 0.002; 0.020; 0.200 and 2.000 (C).
According to data from patent RU 2154068, tri-acylated and tetra-acylated lipids A of E. coli, H. influenzae and P. aeruginosa are powerful inducers of mediator of endotoxin reaction—TNF-α. Table 1 represents data extrapolated from graphs on FIG. 1 (A, B, C) relating to in vivo TNF-α production in serum after i.v. administration of tri-acylated lipid A (3-acLA) of E. coli OM-174 and Westphal LPS E. coli O:111B4 to mice. Only 10-fold difference was detected for induction of TNF-α in vivo between E. coli OM-174 tri-acylated lipid A and commercially available endotoxin Westphal LPS E. coli O:111 B4, it is evidence that there is essential endotoxicity of E. coli tri-acetylated lipid A, excluding its use both as vaccine or vaccine component (adjuvant).

[2] = test system: TNF-α; settings: mice, i.v., extrapolated from graphs of RU 2154068, cited from earlier work

CCCCCCCCCCCC(=O)O[C@H](CCCCCCCCCCC)CC(=O)N[C@H]1[C@H](OC[C@H]2O[C@H](OP(=O)(O)O)[C@H](NC(=O)C[C@H](O)CCCCCCCCCCC)[C@@H](O)[C@@H]2O)O[C@H](CO)[C@@H](OP(=O)(O)O)[C@@H]1O [3-acLA E. coli - OM174]
difference for induction of TNF-α in vivo versus Westphal LPS E. coli O:111 B4 [1]: 10 fold | TNF-α concentration ([2]; dose 0.2 mg/kg): 328 pg/mL | TNF-α concentration ([2]; dose 2.0 mg/kg): 1644 pg/mL | TNF-α concentration ([2]; dose 2.01 mg/kg): 1416 pg/mL | TNF-α concentration ([2]; dose 3.4 mg/kg): 2000 pg/mL | TNF-α concentration ([2]; dose 28.1 mg/kg): 2750 pg/mL
